Patent US12226424B2, “Target protein degradation compounds, their anti-tumor use, their intermediates and use of intermediates” (ShanghaiTech University, priority 2018, dated 2025)
Where two headings read alike, the source gives them in different places.

How the values were obtained:
[1] = system: MM1S cells; assay: Half inhibitory concentration (IC50) on MM1S tumor cell proliferation (CCK-8); type: cell-based; details: Homo sapiens, MM1.S, MM1S cell proliferation inhibitory activity, 72 hours of treatment, read-out: IC50(nM)/MM1S cell line
Protocol: The multiple myeloma cell line used was: MM1S (myeloma (immunoglobulin A lambda), B lymphoblasts), purchased from American Type Culture Collection (ATCC). The medium is RPMI1640 supplemented with 10% FBS and 1% Penicillin-Streptomycin (penicillin and streptomycin). The cells used were identified as correct cells by STR cells, and were negative for mycoplasma through routine inspections.
(§1) The cells used in this present disclosure were cultured in a 37° C. incubator containing 5% CO2. The complete cell culture medium was RPMI 1640 medium with 10% fetal bovine serum, and the final concentrations of penicillin and streptomycin were 100 U/mL, respectively.
MM1S cells were seeded in 100 μL RPMI1640 complete medium at a density of 15000 cells/well. 100 μL of the inoculated cells were treated with 0.5 μL diluted thio-substituted compound of formula (IV) to be tested of the present disclosure at 10 successively decreasing concentrations (starting at the highest concentration of 10 μM/1 μM; 5-fold serial dilutions). After 72 hours of treatment, the cell viability was determined according to the CCK-8 reagent operating instructions. The negative control was DMSO, and the positive control was a commercial inhibitor. After CCK-8 treatment for 2 h, the value of O.D.450 was measured using a microplate reader.

[2] = system: U937 cells; assay: Proliferation inhibition (IC50) on non-BCR-ABL-positive U937 cells
[3] = system: K562 cells (BCR-ABL positive); assay: Half inhibitory concentration (IC50) on tumor cells, CCK-8, K562; details: read-out: IC50 (nM)/K562 cell line
[4] = system: HEK293 cells; assay: Proliferation inhibition (IC50) on non-BCR-ABL-positive HEK293 cells
[5] = molecular target: BCR-ABL (Homo sapiens, UniProt P00519); assay: Western-blot half-degradation concentration (DC50) / degradation of BCR-ABL in K562 cells; details: read-out: DC50 (nM)/K562 cell line, BCR-ABL protein degradation, 24 hours, Western-blot
[6] = system: MDA-MB-453 cells; assay: Half inhibitory concentration (IC50) on BET-expressing tumor cells, CCK-8, MDA-MB-453; type: cell-based, human; details: 48/72 h, read-out: IC50 (nM)/MDA-MB-453 cell line
Protocol: (§2) BET-expressing cells MV-4-11 cells (human B granulocytic leukemia cells), MDA-MB-231 cells (human breast cancer cells), MDA-MB-468 cells (human breast cancer cells), MDA-MB-453 Cells (human breast cancer cells), MM1S cells (myeloma (immunoglobulin A lambda), B lymphoblasts) and SR cells (human large cell immunoblast lymphoma) were purchased from the American Type Culture Collection (ATCC).
as §1, with “1640/IMDM/DMEM” for “1640”, “respectively. All cells were tested negative for mycoplasma with mycoplasma detection kit before the experiment.” for “respectively.”
(§3) Determination of the Half Inhibitory Concentration (IC50) of PROTAD Compounds on Tumor Cells
(§4) MV-411 cells, MM1S cells and SR cells were seeded in 100 μL IMDM/RPMI1640/DMEM complete medium at a density of 15000/10000 cells/well; MDA-MB-231 cells, MDA-MB-468 cells, and MDA-MB453 cells were seeded in 100 μL IMDM/RPMI1640/DMEM complete medium at a density of 3000/5000 cells/well, respectively. 100 μL of the inoculated cells were treated with 0.5 μL diluted PROTAD compounds of the present disclosure to be tested at 10 successively decreasing concentrations (starting at the highest concentration of 10 μM; 5-fold serial dilutions). After the cells were treated with the tested drugs 48/72 h, the cell viability was determined according to the CCK-8 reagent manual. The negative control was DMSO, and the positive control was a commercial inhibitor. After CCK-8 treatment for 2 h, the value of O.D.450 was measured using a microplate reader.

[7] = system: MDA-MB-468 cells; assay: Half inhibitory concentration (IC50) on BET-expressing tumor cells, CCK-8, MDA-MB-468; type: cell-based; details: Homo sapiens, 48/72 h, read-out: IC50 (nM)/MDA-MB-468 cell line
Protocol: as §2
as §1, with “1640/IMDM/DMEM” for “1640”, “respectively. All cells were tested negative for mycoplasma with mycoplasma detection kit before the experiment.” for “respectively.”
as §3, §4

[8] = system: MM1S cells; assay: Half inhibitory concentration (IC50) on BET-expressing tumor cells, CCK-8, MM1S; type: cell-based; details: Homo sapiens, MM1.S, 48/72 h, read-out: IC50 (nM)/MM1S cell line
Protocol: as §2
as §1, with “1640/IMDM/DMEM” for “1640”, “respectively. All cells were tested negative for mycoplasma with mycoplasma detection kit before the experiment.” for “respectively.”
as §3, §4

[9] = system: MDA-MB-231 cells; assay: Half inhibitory concentration (IC50) on BET-expressing tumor cells, CCK-8, MDA-MB-231; type: cell-based; details: Homo sapiens, 48/72 h, read-out: IC50 (nM)/MDA-MB-231 cell line
Protocol: as §2
as §1, with “1640/IMDM/DMEM” for “1640”, “respectively. All cells were tested negative for mycoplasma with mycoplasma detection kit before the experiment.” for “respectively.”
as §3, §4

[10] = system: MV-4-11 cells; assay: Half inhibitory concentration (IC50) on BET-expressing tumor cells, CCK-8, MV-4-11; details: Homo sapiens, MV4-11, read-out: IC50 (nM)/MV-4-11 cell line, MV-4-11 cells, 48/72 h, CCK-8
[11] = Homo sapiens, U-937, read-out: IC50 (nM)/U937 cell line
[12] = Homo sapiens, HEK293, read-out: IC50 (nM)/HEK293 cell line
[13] = Homo sapiens, MDA-MB-453, MDA-MB-453 cells

Sequence of BCR-ABL (P00519 with tags, fused parts or gaps): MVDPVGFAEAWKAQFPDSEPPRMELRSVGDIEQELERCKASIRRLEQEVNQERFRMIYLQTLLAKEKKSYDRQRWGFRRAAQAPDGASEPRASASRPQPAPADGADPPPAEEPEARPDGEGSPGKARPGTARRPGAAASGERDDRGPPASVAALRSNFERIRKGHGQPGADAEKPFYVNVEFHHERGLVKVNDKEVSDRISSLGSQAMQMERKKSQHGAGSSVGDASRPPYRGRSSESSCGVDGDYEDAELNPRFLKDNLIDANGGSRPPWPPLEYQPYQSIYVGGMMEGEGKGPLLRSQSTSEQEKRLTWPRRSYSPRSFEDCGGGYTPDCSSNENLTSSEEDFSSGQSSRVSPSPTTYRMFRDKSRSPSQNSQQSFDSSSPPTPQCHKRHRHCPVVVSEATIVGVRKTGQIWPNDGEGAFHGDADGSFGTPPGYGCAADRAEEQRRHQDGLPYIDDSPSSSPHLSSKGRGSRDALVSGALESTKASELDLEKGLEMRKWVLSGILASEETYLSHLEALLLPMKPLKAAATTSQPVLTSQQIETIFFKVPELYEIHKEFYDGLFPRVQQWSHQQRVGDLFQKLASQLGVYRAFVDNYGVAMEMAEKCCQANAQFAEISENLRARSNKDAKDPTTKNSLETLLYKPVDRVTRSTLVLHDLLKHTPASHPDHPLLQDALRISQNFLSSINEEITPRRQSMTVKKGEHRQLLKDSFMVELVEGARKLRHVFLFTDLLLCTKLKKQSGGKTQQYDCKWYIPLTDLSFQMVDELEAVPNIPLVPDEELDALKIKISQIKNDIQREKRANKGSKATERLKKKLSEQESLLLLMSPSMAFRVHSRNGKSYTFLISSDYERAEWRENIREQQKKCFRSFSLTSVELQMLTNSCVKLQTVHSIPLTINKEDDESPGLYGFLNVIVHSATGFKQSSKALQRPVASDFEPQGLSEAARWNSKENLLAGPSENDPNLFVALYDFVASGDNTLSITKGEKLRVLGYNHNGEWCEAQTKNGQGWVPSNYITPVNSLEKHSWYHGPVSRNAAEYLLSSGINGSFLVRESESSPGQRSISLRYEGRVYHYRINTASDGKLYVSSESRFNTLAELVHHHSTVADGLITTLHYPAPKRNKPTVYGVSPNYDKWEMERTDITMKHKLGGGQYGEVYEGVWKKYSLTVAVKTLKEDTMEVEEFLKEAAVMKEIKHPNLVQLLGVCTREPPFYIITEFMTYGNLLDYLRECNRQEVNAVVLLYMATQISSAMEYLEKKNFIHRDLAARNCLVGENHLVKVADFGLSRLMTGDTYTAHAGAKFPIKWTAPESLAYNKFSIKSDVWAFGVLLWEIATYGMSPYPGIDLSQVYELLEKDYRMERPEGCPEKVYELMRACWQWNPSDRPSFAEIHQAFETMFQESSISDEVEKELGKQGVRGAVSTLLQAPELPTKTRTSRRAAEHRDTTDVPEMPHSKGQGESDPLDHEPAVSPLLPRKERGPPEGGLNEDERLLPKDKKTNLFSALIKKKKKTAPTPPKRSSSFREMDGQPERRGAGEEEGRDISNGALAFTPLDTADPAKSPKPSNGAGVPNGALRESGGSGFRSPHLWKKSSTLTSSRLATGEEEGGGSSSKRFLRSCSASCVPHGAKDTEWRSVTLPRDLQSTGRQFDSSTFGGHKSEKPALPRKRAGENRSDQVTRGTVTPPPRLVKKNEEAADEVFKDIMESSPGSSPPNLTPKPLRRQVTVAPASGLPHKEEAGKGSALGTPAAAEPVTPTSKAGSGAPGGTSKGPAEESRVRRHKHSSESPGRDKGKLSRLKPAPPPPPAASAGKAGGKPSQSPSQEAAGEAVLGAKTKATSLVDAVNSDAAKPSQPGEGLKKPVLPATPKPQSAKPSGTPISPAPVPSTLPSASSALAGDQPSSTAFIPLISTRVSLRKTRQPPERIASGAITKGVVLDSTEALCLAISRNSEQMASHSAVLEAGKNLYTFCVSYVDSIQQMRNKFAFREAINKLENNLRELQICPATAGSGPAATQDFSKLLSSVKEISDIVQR

O=C1CCC(N2Cc3c(SCCCCCCCCBr)cccc3C2=O)C(=O)N1 (stereo not drawn) [SIAIS1216137, 3-(4-((8-bromooctyl)thio)-1-oxoisoindolin-2-yl)piperidine-2,6-dione]
IC50 [1]: 1.58 ± 0.71 nM

Nc1cccc2c1C(=O)N(C1CCC(=O)NC1=O)C2=O (stereo not drawn) [Pomalidomide, reference compound]
IC50 [1]: 9.38 nM

Cc1nc(Nc2ncc(C(=O)Nc3c(C)cccc3Cl)s2)cc(N2CCN(C(=O)CCCCCCSc3cccc4c3CN(C3CCC(=O)NC3=O)C4=O)CC2)n1 (stereo not drawn) [SIAIS171110, N-(2-chloro-6-methylphenyl)-2-((6-(4-(7-((2-(2,6-dioxopiperidin-3-yl)-1-oxoisoindolin-4-yl)thio)heptanoyl)piperazin-1-yl)-2-methylpyrimidin-4-yl)amino)thiazole-5-carboxamide]
IC50 [2, 11]: > 10000 nM
IC50 ([3]; Homo sapiens, K562, 48 h): 1.33 nM
IC50 [4, 12]: > 10000 nM

O=C1CCC(N2Cc3c(SCCCCCCCCCCCBr)cccc3C2=O)C(=O)N1 (stereo not drawn) [SIAIS1220015, 3-(4-((11-bromoundecyl)thio)-1-oxoisoindolin-2-yl)piperidine-2,6-dione]
IC50 [1]: 3.45 nM

NCCCCCSc1cccc2c1CN(C1CCC(=O)NC1=O)C2=O (stereo not drawn) [SIAIS171132, 3-(4-((5-aminopentyl)thio)-1-oxoisoindolin-2-yl)piperidine-2,6-dione]
IC50 [1]: 8.27 nM

NCCCCCCSc1cccc2c1CN(C1CCC(=O)NC1=O)C2=O (stereo not drawn) [SIAIS171134, 3-(4-((6-aminohexyl)thio)-1-oxoisoindolin-2-yl)piperidine-2,6-dione]
IC50 [1]: 4.77 nM

O=C1CCC(N2Cc3c(SCCCCCCCBr)cccc3C2=O)C(=O)N1 (stereo not drawn) [SIAIS1216135, 3-(4-(7-bromoheptylthio)-1-oxoisoindolin-2-yl)piperidine-2,6-dione]
IC50 [1]: 1.23 ± 0.42 nM

Cc1nc(Nc2ncc(C(=O)Nc3c(C)cccc3Cl)s2)cc(N2CCN(C(=O)CCSc3cccc4c3CN(C3CCC(=O)NC3=O)C4=O)CC2)n1 (stereo not drawn) [SIAIS171106, N-(2-chloro-6-methylphenyl)-2-((6-(4-(3-((2-(2,6-dioxopiperidin-3-yl)-1-oxoisoindolin-4-yl)thio)propanoyl)piperazin-1-yl)-2-methylpyrimidin-4-yl)amino)thiazole-5-carboxamide]
IC50 [2, 11]: > 10000 nM
IC50 ([3]; Homo sapiens, K562, 48 h): 1.74 nM
IC50 [4, 12]: > 10000 nM
DC50 [5]: 10.3 nM

Cc1nc(Nc2ncc(C(=O)Nc3c(C)cccc3Cl)s2)cc(N2CCN(C(=O)CS(=O)(=O)c3cccc4c3C(=O)N(C3CCC(=O)NC3=O)C4=O)CC2)n1 (stereo not drawn) [SIAIS151108, N-(2-chloro-6-methylphenyl)-2-((6-(4-(2-((2-(2,6-dioxopiperidin-3-yl)-1,3-dioxoisoindolin-4-yl)sulfonyl)acetyl)piperazin-1-yl)-2-methylpyrimidin-4-yl)amino)thiazole-5-carboxamide]
IC50 [2, 11]: > 10000 nM
IC50 ([3]; Homo sapiens, K562, 48 h): 206 nM
IC50 [4, 12]: > 10000 nM
DC50 [5]: 245 nM

Cc1nc(Nc2ncc(C(=O)Nc3c(C)cccc3Cl)s2)cc(N2CCN(C(=O)CSc3cccc4c3C(=O)N(C3CCC(=O)NC3=O)C4=O)CC2)n1 (stereo not drawn) [SIAIS151110, N-(2-chloro-6-methylphenyl)-2-((6-(4-(2-((2-(2,6-dioxopiperidin-3-yl)-1,3-dioxoisoindolin-4-yl)thio)acetyl)piperazin-1-yl)-2-methylpyrimidin-4-yl)amino)thiazole-5-carboxamide]
IC50 [2, 11]: > 10000 nM
IC50 ([3]; Homo sapiens, K562, 48 h): 3.2 nM
IC50 [4, 12]: > 10000 nM
DC50 [5]: < 1 nM

NCCCCCCCCSc1cccc2c1CN(C1CCC(=O)NC1=O)C2=O (stereo not drawn) [SIAIS171136, 3-(4-((8-aminooctyl)thio)-1-oxoisoindolin-2-yl)piperidine-2,6-dione]
IC50 [1]: 4.22 nM

O=C1CCC(N2Cc3c(SCCCCCCBr)cccc3C2=O)C(=O)N1 (stereo not drawn) [SIAIS1216133, 3-(4-(6-bromohexylthio)-1-oxoisoindolin-2-yl)piperidine-2,6-dione]
IC50 [1]: 1.27 ± 0.13 nM

NCCCCSc1cccc2c1CN(C1CCC(=O)NC1=O)C2=O (stereo not drawn) [SIAIS171131, 3-(4-((4-aminobutyl)thio)-1-oxoisoindolin-2-yl)piperidine-2,6-dione]
IC50 [1]: 6.61 nM

COc1cc(Nc2c(C#N)cnc3cc(OCCCN4CCN(C)CC4)c(OC)cc23)c(Cl)cc1Cl [Bosutinib, reference compound]
IC50 [2, 11]: > 10000 nM
IC50 ([3]; Homo sapiens, K562, 48 h): 92.6 nM
IC50 [4, 12]: > 10000 nM

O=C1CCC(N2Cc3c(SCCCCCCCCCCBr)cccc3C2=O)C(=O)N1 (stereo not drawn) [SIAIS1220013, 3-(4-((10-bromodecyl)thio)-1-oxoisoindolin-2-yl)piperidine-2,6-dione]
IC50 [1]: 1.98 nM

Cc1sc2c(c1C)C(c1ccc(Cl)cc1)=N[C@@H](CC(=O)NCCSc1cccc3c1C(=O)N(C1CCC(=O)NC1=O)C3=O)c1nnc(C)n1-2 (stereo partly drawn) [SIAIS171036, 2-((S)-4-(4-chlorophenyl)-2,3,9-trimethyl-6H-thieno[3,2-f][1,2,4]triazolo[4,3-a][1,4]diazepin-6-yl)-N-(2-((2-(2,6-dioxopiperidin-3-yl)-1,3-dioxoisoindolin-4-yl)thio)ethyl)acetamide]
IC50 [6, 13]: 163 nM
IC50 ([6]; MDA-MB-453 cells): 214 nM
IC50 [7]: 100 ± 21 nM
IC50 [8]: 8.6 nM
IC50 [9]: 242 ± 65 nM
IC50 [10]: 4.5 ± 3.2 nM

NCCCSc1cccc2c1CN(C1CCC(=O)NC1=O)C2=O (stereo not drawn) [SIAIS171124, 3-(4-((3-aminopropyl)thio)-1-oxoisoindolin-2-yl)piperidine-2,6-dione]
IC50 [1]: 56.9 nM

NCCCCCCCSc1cccc2c1CN(C1CCC(=O)NC1=O)C2=O (stereo not drawn) [SIAIS171135, 3-(4-((7-aminoheptyl)thio)-1-oxoisoindolin-2-yl)piperidine-2,6-dione]
IC50 [1]: 4.31 nM

Cc1nc(Nc2ncc(C(=O)Nc3c(C)cccc3Cl)s2)cc(N2CCN(C(=O)CCCCCSc3cccc4c3CN(C3CCC(=O)NC3=O)C4=O)CC2)n1 (stereo not drawn) [SIAIS 171109]
IC50 ([2]; read-out: IC50 (nM)/U937 cell line, U937 cells, highest concentration 10 μM): > 10000 nM
IC50 ([3]; K562 cells, 48 hours, CCK-8): 0.53 nM
IC50 ([4]; read-out: IC50 (nM)/HEK293 cell line, HEK293 cells, highest concentration 10 μM): > 10000 nM

Cc1sc2c(c1C)C(c1ccc(Cl)cc1)=N[C@@H](CC(=O)NCCCSc1cccc3c1CN(C1CCC(=O)NC1=O)C3=O)c1nnc(C)n1-2 (stereo partly drawn) [SIAIS171139, 2-((S)-4-(4-chlorophenyl)-2,3,9-trimethyl-6H-thieno[3,2-f][1,2,4]triazolo[4,3-a][1,4]diazepin-6-yl)-N-(3-((2-(2,6-dioxopiperidin-3-yl)-1-oxoisoindolin-4-yl)thio)propyl)acetamide]
IC50 [6, 13]: 452 nM
IC50 [7]: > 10000 nM
IC50 [8]: 2.03 nM
IC50 [9]: > 10000 nM
IC50 [10]: 1.1 ± 0.6 nM

NCCSc1cccc2c1CN(C1CCC(=O)NC1=O)C2=O (stereo not drawn) [SIAIS171123, 3-(4-((2-aminoethyl)thio)-1-oxoisoindolin-2-yl)piperidine-2,6-dione]
IC50 [1]: 71.4 nM
